We go through ten compounds from patent US4596819A, “Modified tripeptides” (Warner-Lambert Company, priority 1984, dated 1986).

One experiment relates to learning and memory. To be noted: intranasal administration, young unimpaired human subjects, compared with placebo treatment; cited from earlier work.
The test system of experiment [1] is recall of learned information. To be noted: two patients given bilateral electroconvulsive shock therapy (ECT); cited from earlier work.
Experiment [2] concerns amnesia produced by electroconvulsive shock. Put plainly: reversal of electroconvulsive shock-induced amnesia, rats. The experiment is classed as in vivo.
For experiment [3] the test system is unchanged. Put plainly: reversal of electroconvulsive shock-induced amnesia, mice. The experiment is classed as in vivo. The protocol:
The modified peptides in accordance with this invention are effective in treating senility, in enhancing memory, or of reversing the effects of electroconvulsive shock-induced amnesia. The effectiveness of these compounds is determined by the test designed to show the compound's ability to reverse amnesia produced by electroconvulsive shock. The test is more fully described in U.S. Pat. No. 4,145,347, issued Mar. 20, 1979, the disclosure of which is herein incorporated by reference. The only deviation in the present instance is that the compounds tested are administered orally, and the duration of the electroconvulsive shock administered is 1.0 seconds.

The test system is the same in experiment [4]. The description is as above. The experiment is classed as in vivo. This is another data set of the same source.
Another experiment has as its system pole-climbing avoidance. The following applies: cited from earlier work.

For “1-desamino-8-D-arginine vasopressin [DDAVP]”, the “effect on learning and memory” value with learning and memory is “increases in learning and memory”. Also, the “effect on recall of learned information” value in experiment [1] is “Positive effects on recall of learned information”.
Regarding `CC(C)C[C@@H](CSCC(=O)O)NC(=O)[C@@H]1CCC(=O)N1C(=O)OCc1ccccc1` (relative stereo) [Z3-KetoProLeu[CH2 S]Gly, [S-(R*,R*)]-Phenylmethyl 5-oxo-2-[[[1-[[(carboxymethyl)thio]methyl]-3-methylbutyl]amino]carbonyl]-1-pyrrolidinecarboxylate], the “% Amnesia Reversal Rats” value in experiment [2] (dose 0.001 mg/kg IM) is listed as 33%; in experiment [2] (dose 0.010 mg/kg IM), 0%; in experiment [2] (dose 0.100 mg/kg IM), 0%. For the same compound, the “Amnesia reversal rating, rats” value in experiment [2] (dose 0.001 mg/kg IM) was “C (25 to 39 percent amnesia reversal (borderline activity=C))”; in experiment [2] (dose 0.010 mg/kg IM) it was “N (0 to 25 percent amnesia reversal (inactive=N))”; in experiment [2] (dose 0.100 mg/kg IM), “N (0 to 25 percent amnesia reversal (inactive=N))”.
As to `CC(C)C[C@@H](CNCC(N)=O)NC(=O)[C@@H]1CCCN1C(=O)OCc1ccccc1.Cl` (relative stereo) [ZProLeu[CH2 NH]GlyNH2, [S-(R*,R*)]-2-[[[1-[[(2-Amino-2-oxoethyl)-amino]methyl]-3-methylbutyl]amino]-carbonyl]-1-pyrrolidinecarboxylic acid, phenylmethyl ester, monohydrochloride], the “% Amnesia Reversal Rats” value in experiment [2] (dose 0.001 mg/kg IM), in experiment [2] (dose 0.010 mg/kg IM) and in experiment [2] (dose 0.100 mg/kg IM) was 43% in each case. Further, the “Amnesia reversal rating, rats” value in experiment [2] (dose 0.001 mg/kg IM), in experiment [2] (dose 0.010 mg/kg IM) and in experiment [2] (dose 0.100 mg/kg IM) was “A (40 percent or more amnesia reversal (active=A))” in each case.
Consider `CC(C)C[C@H](NC[C@@H]1CCCN1C(=O)OCc1ccccc1)C(=O)NCC(N)=O` (relative stereo) [ZPro[CH2 NH]LeuGlyNH2, [S-(R*,R*)]-2-[[[[1-[(2-Amino-2-oxoethyl)amino]carbonyl]-3-methylbutyl]amino]methyl]-1-pyrrolidinecarboxylic acid, phenylmethyl ester], for which the figures for the “% Amnesia Reversal Mice” value in experiment [3] (dose 1 mg/kg PO), in experiment [3] (dose 10 mg/kg PO) and in experiment [3] (dose 100 mg/kg PO) were 85%, 67% and 57%, respectively. The “Amnesia reversal rating, mice” value in experiment [3] (dose 1 mg/kg PO), in experiment [3] (dose 10 mg/kg PO) and in experiment [3] (dose 100 mg/kg PO) was “A (40 percent or more amnesia reversal (active=A))” in each case. The “% Amnesia Reversal Rats” value in experiment [2] (dose 0.001 mg/kg IM) is 11%; in experiment [2] (dose 0.010 mg/kg IM) it was 0%; in experiment [2] (dose 0.100 mg/kg IM), 0%. For the same compound, the “Amnesia reversal rating, rats” value in experiment [2] (dose 0.001 mg/kg IM), in experiment [2] (dose 0.010 mg/kg IM) and in experiment [2] (dose 0.100 mg/kg IM) was “N (0 to 25 percent amnesia reversal (inactive=N))” in each case.
`Cc1ccc(S(=O)(=O)N2CCCC2CN[C@@H](CC(C)C)C(=O)NCC(N)=O)cc1` (stereo partly drawn) [TosPro[CH2 NH]DLeuGlyNH2, (S)-N^2-[[1-[(4-Methylphenyl)sulfonyl]-2-pyrrolidinyl]methyl]-D-Leucylglycinamide]: the “% Amnesia Reversal Rats” value in experiment [2] (dose 0.001 mg/kg IM) is given as 0%; in experiment [2] (dose 0.010 mg/kg IM) it was 0%; in experiment [2] (dose 0.100 mg/kg IM) it was 34%. Besides, the “Amnesia reversal rating, rats” value in experiment [2] (dose 0.001 mg/kg IM) is “N (0 to 25 percent amnesia reversal (inactive=N))”; in experiment [2] (dose 0.010 mg/kg IM), “N (0 to 25 percent amnesia reversal (inactive=N))”; in experiment [2] (dose 0.100 mg/kg IM), “C (25 to 39 percent amnesia reversal (borderline activity=C))”.
As for `CC(C)CC(CSCC(=O)O)NC(=O)C1CC(=O)CN1C(=O)OCc1ccccc1` (stereo not drawn) [Z4-Keto ProLeu[CH2 S]Gly, [S-(R*,R*)]-Phenylmethyl 2-[[[1-[[(carboxymethyl)thio]methyl]-3-methylbutyl]amino]carbonyl]-4-oxo-1-pyrrolidinecarboxylate], the “% Amnesia Reversal Rats” value was 17% in experiment [2] (dose 0.001 mg/kg IM), 50% in experiment [2] (dose 0.010 mg/kg IM) and 83% in experiment [2] (dose 0.100 mg/kg IM). For the same compound, the figures for the “Amnesia reversal rating, rats” value in experiment [2] (dose 0.001 mg/kg IM), in experiment [2] (dose 0.010 mg/kg IM) and in experiment [2] (dose 0.100 mg/kg IM) were “N (0 to 25 percent amnesia reversal (inactive=N))”, “A (40 percent or more amnesia reversal (active=A))” and “A (40 percent or more amnesia reversal (active=A))”, respectively.
In the case of `CC(C)CC(CSCC(=O)O)NC(=O)C1CCCN1C(=O)OCc1ccccc1` (stereo not drawn) [ZProLeu[CH2 S]Gly, [2S-(R*,R*)]-Phenylmethyl2-[[[1-[[(carboxymethyl)thio]methyl]-3-methylbutyl]amino]carbonyl]-1-pyrrolidinecarboxylate], the “% Amnesia Reversal Mice” value in experiment [4] (dose 0.1 mg/kg IM) turned out to be 69%; in experiment [4] (dose 1.0 mg/kg IM), 77%; in experiment [4] (dose 10.0 mg/kg IM), 69%. The “Amnesia reversal rating, mice” value in experiment [4] (dose 0.1 mg/kg IM), in experiment [4] (dose 1.0 mg/kg IM) and in experiment [4] (dose 10.0 mg/kg IM) was “A (40 percent or more amnesia reversal (active=A))” in each case. For the same compound, the “% Amnesia Reversal Rats” value turned out to be 57% in experiment [2] (dose 0.001 mg/kg IM), 57% in experiment [2] (dose 0.010 mg/kg IM) and 14% in experiment [2] (dose 0.100 mg/kg IM). The “Amnesia reversal rating, rats” value in experiment [2] (dose 0.001 mg/kg IM) was “N (0 to 25 percent amnesia reversal (inactive=N))”; in experiment [2] (dose 0.010 mg/kg IM) it was “A (40 percent or more amnesia reversal (active=A))”; in experiment [2] (dose 0.100 mg/kg IM) it was “N (0 to 25 percent amnesia reversal (inactive=N))”.
Regarding `NC(=O)COCC(Cc1ccccc1)NC(=O)[C@@H]1CCCN1C(=O)OCc1ccccc1` (stereo partly drawn) [ZProPhe[CH2 O]GlyNH2, (2S)-Phenylmethyl 2[[[1-[(2-amino-2-oxoethoxy)methyl]-2-phenylethyl]amino]carbonyl]-1-pyrrolidinecarboxylate], the “% Amnesia Reversal Mice” value in experiment [3] (dose 1 mg/kg PO) was found to be 20%; in experiment [3] (dose 10 mg/kg PO), 59%; in experiment [3] (dose 100 mg/kg PO) it was 71%. In addition, the “Amnesia reversal rating, mice” value in experiment [3] (dose 1 mg/kg PO) is “N (0 to 25 percent amnesia reversal (inactive=N))”; in experiment [3] (dose 10 mg/kg PO) it was “A (40 percent or more amnesia reversal (active=A))”; in experiment [3] (dose 100 mg/kg PO) it was “A (40 percent or more amnesia reversal (active=A))”. In addition, the “% Amnesia Reversal Rats” value in experiment [2] (dose 0.001 mg/kg IM) is recorded as 11%; in experiment [2] (dose 0.010 mg/kg IM), 0%; in experiment [2] (dose 0.100 mg/kg IM), 0%. For the same compound, the “Amnesia reversal rating, rats” value in experiment [2] (dose 0.001 mg/kg IM), in experiment [2] (dose 0.010 mg/kg IM) and in experiment [2] (dose 0.100 mg/kg IM) was “N (0 to 25 percent amnesia reversal (inactive=N))” in each case.
On to `NC(=O)CC[C@@H]1NC(=O)[C@H](Cc2ccccc2)NC(=O)[C@H](Cc2ccc(O)cc2)NC(=O)[C@@H](N)CSSC[C@@H](C(=O)N2CCC[C@H]2C(=O)N[C@@H](CCCN=C(N)N)C(=O)NCC(N)=O)NC(=O)[C@H](CC(N)=O)NC1=O` [vasopressin], for which, in the experiment on learning and memory, the “effect on learning and memory” value is “increases in learning and memory”.
For the compound Pro-Arg-Gly-NH2, the “activity in the rat pole-climbing avoidance test” value in the experiment on pole-climbing avoidance is listed as “active”.
